US20030232851A1, “Viral treatment” (The Procter & Gamble Company, priority 1999, published 2003)

Legend:
[1] = test system: U937KN1272, a protease resistant strain; test: Long term in vitro study, U937KN1272, reverse transcriptase; format: cell-based, HIV
Protocol: (§1) A microtiter-based reveres transcriptase (RT) reaction is utilized (Buckheit et al (1991) AIDS Research and Human Retroviruses 7:295-302). Tritiated thymidine triphosphate (NEN)(TTP) is resuspended in distilled water at 5 Ci/ml. Poly rA and oligo dT are prepared as a stock solution which is kept at −20° C. The RT reaction buffer is prepared fresh on a daily basis and consists of 125 μl 1M EGTA, 125 μl water, 125 μl Triton X-100, 50 μl Tris (pH 7.4), 50 μl 1 MDDT, and 40 μl 1M MgCl2. These three solutions are mixed together in a ratio of 1 part TTP, 2.5 parts poly rA:oligo dT, 2.5 parts reaction buffer and 4 parts distilled water. Ten microliters of this reaction mixture is placed in a round bottom microtiter place and 15 μl of virus containing supernatant is added and mixed. The plate is incubated at 37° C. for 60 minutes. Following reaction, the reaction volume is spotted onto filter mats, washed 6 times for 5 minutes each in a 5% sodium phosphate buffer, 2 times for 1 minute each in distilled water, 2 times for 1 minute each in 70% ethanol, and then dried. The dried filter mat is placed in a plastic sample bag, Betaplate scintillation fluid is added and the bag is heat sealed. Incorporated radioactivity is quantified utilizing a Wallac Microbeta scintillation counter.
(§2) Acute infection of most established human cell lines with HIV-1 results in the eventual establishment of a constitutive virus-producing chronically infected cell line. The cells can be passaged for long periods of time in culture without loss of virus production. These cells may be utilized to evaluate the effects of anti-HIV compounds on syncytium formation or to evaluate the effects of anti-HIV compounds on levels of virus production from these cells. […] Each of the cells contains an integrated HIV genome or provirus. Chronically infected CEM, H9 and U937 cell lines have been prepared and cultured by Southern Research Institute, Frederick Md. and are available from them.
(§3) CEM-SS cells chronically infected with HIV isolate, for example SKI (CEM-SKI) are cultured in RPMI1640 tissue culture medium supplemented with 10% fetal bovine serum and antibiotics. […] CEM-SKI or other infected cells with no added drug are used as the control cells. Cells are allowed to grow to a density of approximately 1×10^6 cells/ml and are then passaged at a 1:10 dilution. […] The drug concentration in the flask is then increased two-fold and the cells maintained as above.
(§4) The cell populations contain integrated copies of the HIV genome and constitutively produce HIV at relatively high levels or are latently infected and only produce virus after stimulation with phorbol esters, tumor necrosis factor or IL6 (U1 and ACH2). Reductions in virus products were observed when quantifying supernatant reverse transcriptase activity,
Similar results are obtained with U937KN1272, a protease resistant strain, reported below.

[2] = test system: HIV-1 cell line, U937IIIB; test: Long term in vitro study, U937IIIB, reverse transcriptase; format: cell-based; parameters: reverse transcriptase data: unit not given here
Protocol: as §1, §2, §3, §4
A long term in vitro study of 2-(2-thienyl)-imidazolo [4,5-b]pyridine against an HIV-1 cell line, U9371IIIB was conducted at three different levels. The results with U937IIIB cells were reported at weekly intervals.

SMILES: c1csc(-c2nc3cccnc3[nH]2)c1 [2-(2-thienyl)-imidazolo [4,5-b]pyridine]
- reverse transcriptase data ([1]; 7 μg/ml, day 4): 3503
- reverse transcriptase data ([1]; 7 μg/ml, day 11): 10001
- reverse transcriptase data ([1]; 7 μg/ml, day 18): 14176
- reverse transcriptase data ([1]; 7 μg/ml, day 25): 14084
- reverse transcriptase data ([1]; 7 μg/ml, day 32): 9919
- reverse transcriptase data ([1]; 7 μg/ml, day 39): 8890
- reverse transcriptase data ([1]; 7 μg/ml, day 46): 9238
- reverse transcriptase data ([1]; 7 μg/ml, day 53): 9074
- reverse transcriptase data ([1]; 7 μg/ml, day 60): 7460
- reverse transcriptase data ([1]; 7 μg/ml, day 67): 7863
- reverse transcriptase data ([1]; 7 μg/ml, day 71): 8402
- reverse transcriptase data ([1]; 7 μg/ml, day 74): 8976
- reverse transcriptase data ([1]; 7 μg/ml, day 88): 8522
- reverse transcriptase data ([1]; 7 μg/ml, day 95): 9358
- reverse transcriptase data ([1]; 7 μg/ml, day 102): 9221
- reverse transcriptase data ([1]; 7 μg/ml, day 109): 8245
- reverse transcriptase data ([1]; 15 μg/ml, day 4): 2354
- reverse transcriptase data ([1]; 15 μg/ml, day 11): 7962
- reverse transcriptase data ([1]; 15 μg/ml, day 18): 11866
- reverse transcriptase data ([1]; 15 μg/ml, day 25): 13386
- reverse transcriptase data ([1]; 15 μg/ml, day 32): 10413
- reverse transcriptase data ([1]; 15 μg/ml, day 39): 8675
- reverse transcriptase data ([1]; 15 μg/ml, day 46): 8124
- reverse transcriptase data ([1]; 15 μg/ml, day 53): 7645
- reverse transcriptase data ([1]; 15 μg/ml, day 60): 5534
- reverse transcriptase data ([1]; 15 μg/ml, day 67): 4321
- reverse transcriptase data ([1]; 15 μg/ml, day 71): 5364
- reverse transcriptase data ([1]; 15 μg/ml, day 74): 6974
- reverse transcriptase data ([1]; 15 μg/ml, day 88): 4297
- reverse transcriptase data ([1]; 15 μg/ml, day 95): 5224
- reverse transcriptase data ([1]; 15 μg/ml, day 102): 5361
- reverse transcriptase data ([1]; 15 μg/ml, day 109): 7833
- reverse transcriptase data ([1]; 30 μg/ml, day 4): 1209
- reverse transcriptase data ([1]; 30 μg/ml, day 11): 4377
- reverse transcriptase data ([1]; 30 μg/ml, day 18): 6376
- reverse transcriptase data ([1]; 30 μg/ml, day 25): 9293
- reverse transcriptase data ([1]; 30 μg/ml, day 32): 9903
- reverse transcriptase data ([1]; 30 μg/ml, day 39): 6852
- reverse transcriptase data ([1]; 30 μg/ml, day 46): 2502
- reverse transcriptase data ([1]; 30 μg/ml, day 53): 2760
- reverse transcriptase data ([1]; 30 μg/ml, day 60): 2478
- reverse transcriptase data ([1]; 30 μg/ml, day 67): 1643
- reverse transcriptase data ([1]; 30 μg/ml, day 71): 4820
- reverse transcriptase data ([1]; 30 μg/ml, day 74): 3270
- reverse transcriptase data ([1]; 30 μg/ml, day 88): 3184
- reverse transcriptase data ([1]; 30 μg/ml, day 95): 2031
- reverse transcriptase data ([1]; 30 μg/ml, day 102): 3427
- reverse transcriptase data ([1]; 30 μg/ml, day 109): 1356
- reverse transcriptase data ([2]; 7 μg/ml, day 4): 2100
- reverse transcriptase data ([2]; 7 μg/ml, day 11): 2205
- reverse transcriptase data ([2]; 7 μg/ml, day 18): 2245
- reverse transcriptase data ([2]; 7 μg/ml, day 25): 2212
- reverse transcriptase data ([2]; 7 μg/ml, day 32): 2347
- reverse transcriptase data ([2]; 7 μg/ml, day 39): 2516
- reverse transcriptase data ([2]; 7 μg/ml, day 46): 1968
- reverse transcriptase data ([2]; 7 μg/ml, day 53): 1695
- reverse transcriptase data ([2]; 7 μg/ml, day 60): 2887
- reverse transcriptase data ([2]; 7 μg/ml, day 67): 4170
- reverse transcriptase data ([2]; 7 μg/ml, day 71): 7786
- reverse transcriptase data ([2]; 7 μg/ml, day 74): 6119
- reverse transcriptase data ([2]; 7 μg/ml, day 88): 6880
- reverse transcriptase data ([2]; 7 μg/ml, day 95): 5041
- reverse transcriptase data ([2]; 7 μg/ml, day 102): 5072
- reverse transcriptase data ([2]; 7 μg/ml, day 109): 7437
- reverse transcriptase data ([2]; 15 μg/ml, day 4): 1188
- reverse transcriptase data ([2]; 15 μg/ml, day 11): 713
- reverse transcriptase data ([2]; 15 μg/ml, day 18): 993
- reverse transcriptase data ([2]; 15 μg/ml, day 25): 1900
- reverse transcriptase data ([2]; 15 μg/ml, day 32): 2003
- reverse transcriptase data ([2]; 15 μg/ml, day 39): 1326
- reverse transcriptase data ([2]; 15 μg/ml, day 46): 987
- reverse transcriptase data ([2]; 15 μg/ml, day 53): 1221
- reverse transcriptase data ([2]; 15 μg/ml, day 60): 1205
- reverse transcriptase data ([2]; 15 μg/ml, day 67): 2314
- reverse transcriptase data ([2]; 15 μg/ml, day 71): 4265
- reverse transcriptase data ([2]; 15 μg/ml, day 74): 5689
- reverse transcriptase data ([2]; 15 μg/ml, day 88): 6832
- reverse transcriptase data ([2]; 15 μg/ml, day 95): 4988
- reverse transcriptase data ([2]; 15 μg/ml, day 102): 3912
- reverse transcriptase data ([2]; 15 μg/ml, day 109): 4294
- reverse transcriptase data ([2]; 30 μg/ml, day 4): 996
- reverse transcriptase data ([2]; 30 μg/ml, day 11): 180
- reverse transcriptase data ([2]; 30 μg/ml, day 18): 417
- reverse transcriptase data ([2]; 30 μg/ml, day 25): 588
- reverse transcriptase data ([2]; 30 μg/ml, day 32): 716
- reverse transcriptase data ([2]; 30 μg/ml, day 39): 625
- reverse transcriptase data ([2]; 30 μg/ml, day 46): 542
- reverse transcriptase data ([2]; 30 μg/ml, day 53): 208
- reverse transcriptase data ([2]; 30 μg/ml, day 60): 504
- reverse transcriptase data ([2]; 30 μg/ml, day 67): 782
- reverse transcriptase data ([2]; 30 μg/ml, day 71): 1414
- reverse transcriptase data ([2]; 30 μg/ml, day 74): 1059
- reverse transcriptase data ([2]; 30 μg/ml, day 88): 1811
- reverse transcriptase data ([2]; 30 μg/ml, day 95): 1988
- reverse transcriptase data ([2]; 30 μg/ml, day 102): 1695
- reverse transcriptase data ([2]; 30 μg/ml, day 109): 1542
- reverse transcriptase data on continuation (in words) ([2]; run through 242 days): data remained consistent
